In general, IC50 refers to the concentration that gives 50% inhibition.

This assay has as its target T1, CCR2 (Homo sapiens, UniProt P41597).
T1 construct: host or cells: THP-1 (human monocytic cell line)
T1 sequence (P41597 1-360 isoform P41597-2): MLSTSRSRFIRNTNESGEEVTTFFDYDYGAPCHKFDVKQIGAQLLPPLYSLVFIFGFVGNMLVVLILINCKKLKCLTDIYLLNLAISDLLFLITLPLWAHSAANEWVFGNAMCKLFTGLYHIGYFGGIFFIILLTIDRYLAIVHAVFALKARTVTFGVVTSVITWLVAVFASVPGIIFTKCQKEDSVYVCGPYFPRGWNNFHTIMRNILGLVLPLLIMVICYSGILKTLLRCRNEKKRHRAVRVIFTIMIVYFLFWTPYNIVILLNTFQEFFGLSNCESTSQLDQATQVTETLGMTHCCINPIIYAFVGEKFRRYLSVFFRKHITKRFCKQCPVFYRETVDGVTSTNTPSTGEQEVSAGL
As to the kind of experiment: MCP-1 Receptor Binding Assay in THP-1 Cells (125I labeled MCP-1). Conditions: 0.5 nM 125I labeled MCP-1, 2 hours at 30° C., read-out: Inhibition of MCP-1 Binding IC50, CCR2 Binding. On the procedure:
Compounds of the invention were subjected to various representative biological tests. […] MCP-1 Receptor Binding Assay in THP-1 Cells
Human monocytic cell line THP-1 cells were obtained from American Type Culture Collection (Manassas, Va., USA). […] The cell density was maintained […].
1 μM cold MCP-1 was used for nonspecific binding.
As to `Cn1ccc(C2CCC(N3CC(NC(=O)CNC(=O)c4cccc(C(F)(F)F)c4)C3)CC2)cc1=O` (single isomer, unassigned) [Example 46a, N-({1-[4-(1-Methyl-2-oxo-1,2-dihydro-pyridin-4-yl)-cyclohexyl]-azetidin-3-ylcarbamoyl}-methyl)-3-trifluoromethyl-benzamide], the IC50 amounted to 550 nM. With `Nc1cncc(C2CCC(N3CC(NC(=O)CNC(=O)c4cccc(C(F)(F)F)c4)C3)CC2)c1` (stereo not drawn) [Example 32, N-({1-[4-(5-Amino-pyridin-3-yl)-cyclohexyl]-azetidin-3-ylcarbamoyl}-methyl)-3-trifluoromethyl-benzamide], the IC50 was 320 nM. As for `O=C(CNC(=O)c1cccc(C(F)(F)F)c1)NC1CN(C2CCC(c3nc4n(n3)CCCC4)CC2)C1` (mixture of isomers) [Example 63, N-({1-[4-(5,6,7,8-Tetrahydro-[1,2,4]-triazolo[1,5-a]pyridin-2-yl)-cyclohexyl]-azetidin-3-ylcarbamoyl}-methyl)-3-trifluoromethyl-benzamide], the IC50 stood at 1500 nM. Turning to `COc1ccc(C2CCC(N3CC(NC(=O)CNC(=O)c4cccc(C(F)(F)F)c4)C3)CC2)cn1` (single isomer, unassigned) [Example 1a, N-({1-[4-(6-Methoxy-pyridin-3-yl)-cyclohexyl]-azetidin-3-ylcarbamoyl}-methyl)-3-trifluoromethyl-benzamide], the 50% inhibitory concentration (IC50) turned out to be 7 nM. The figure for `COC(=O)Nc1ncc(C2CCC(N3CC(NC(=O)CNC(=O)c4cccc(C(F)(F)F)c4)C3)CC2)s1` (single isomer, unassigned) [Example 51a, [5-(4-{3-[2-(3-Trifluoromethyl-benzoylamino)-acetylamino]-azetidin-1-yl}-cyclohexyl)-thiazol-2-yl]-carbamic acid methyl ester] is 340 nM; for `O=C(CNC(=O)c1cccc(C(F)(F)F)c1)NC1CN(C2CCC(c3ccc(NC(=O)C(F)(F)F)cn3)CC2)C1` (stereo not drawn) [Example 16, N-[(1-{4-[5-(2,2,2-Trifluoro-acetylamino)-pyridin-2-yl]-cyclohexyl}-azetidin-3-ylcarbamoyl)-methyl]-3-trifluoromethyl-benzamide] it is 95 nM; for `O=C(CNC(=O)c1ccccc1)NC1CN(C2CCC(c3c[nH]c4ccccc34)CC2)C1` (stereo not drawn) [Example 49, N-({1-[4-(1H-Indol-3-yl)-cyclohexyl]-azetidin-3-ylcarbamoyl}-methyl)-benzamide] it is > 25000 nM. Take `Cc1cc(C2CCC(N3CC(NC(=O)CNC(=O)c4cccc(C(F)(F)F)c4)C3)CC2)cn(C)c1=O` (single isomer, unassigned) [Example 45a, N-({1-[4-(1,5-Dimethyl-6-oxo-1,6-dihydro-pyridin-3-yl)-cyclohexyl]-azetidin-3-ylcarbamoyl}-methyl)-3-trifluoromethyl-benzamide]: the half-maximal inhibitory concentration (IC50) is 61 nM. With `CS(=O)(=O)Nc1ccc(C2CCC(N3CC(NC(=O)CNC(=O)c4cccc(C(F)(F)F)c4)C3)CC2)nc1` (stereo not drawn) [Example 15, N-({1-[4-(5-Methanesulfonyl-amino-pyridin-2-yl)-cyclohexyl]-azetidin-3-ylcarbamoyl}-methyl)-3-trifluoromethyl-benzamide], the IC50 amounted to 230 nM. In the case of `COc1ncccc1C1CCC(N2CC(NC(=O)CNC(=O)c3cccc(C(F)(F)F)c3)C2)CC1` (stereo not drawn) [Example 2, N-({1-[4-(2-Methoxy-pyridin-3-yl)-cyclohexyl]-azetidin-3-ylcarbamoyl}-methyl)-3-trifluoromethyl-benzamide], the IC50 was 210 nM. As to `CS(=O)(=O)N(c1ccc(C2CCC(N3CC(NC(=O)CNC(=O)c4cccc(C(F)(F)F)c4)C3)CC2)nc1)S(C)(=O)=O` (stereo not drawn) [Example 14, N-({1-[4-(5-bis-{Methanesulfonyl}-amino-pyridin-2-yl)-cyclohexyl]-azetidin-3-ylcarbamoyl}-methyl)-3-trifluoromethyl-benzamide], the IC50 turned out to be 280 nM. For the compound `CNc1cccc(C2CCC(N3CC(NC(=O)CNC(=O)c4cccc(C(F)(F)F)c4)C3)CC2)n1` (single isomer, unassigned) [Example 23a, N-({1-[4-(6-Methylamino-pyridin-2-yl)-cyclohexyl]-azetidin-3-ylcarbamoyl}-methyl)-3-trifluoromethyl-benzamide], the IC50 was 72 nM. Turning to `CCn1cc(C2CCC(N3CC(NC(=O)CNC(=O)c4cccc(C(F)(F)F)c4)C3)CC2)ccc1=O` (stereo not drawn) [Example 39a, N-({1-[4-(1-Ethyl-6-oxo-1,6-dihydro-pyridin-3-yl)-cyclohexyl]-azetidin-3-ylcarbamoyl}-methyl)-3-trifluoromethyl-benzamide], the IC50 turned out to be 37 nM. The figure for `O=C(CNC(=O)c1cccc(C(F)(F)F)c1)NC1CN(C2CCC(c3cc(O)ccn3)CC2)C1` (stereo not drawn) [Example 12, N-({1-[4-(4-Hydroxy-pyridin-2-yl)-cyclohexyl]-azetidin-3-ylcarbamoyl}-methyl)-3-trifluoromethyl-benzamide] is > 25000 nM; for `O=C(CNC(=O)c1cccc(C(F)(F)F)c1)NC1CN(C2CCC(c3cccc(=O)[nH]3)CC2)C1` (stereo not drawn) [Example 47, N-({1-[4-(6-Oxo-1,6-dihydro-pyridin-2-yl)-cyclohexyl]-azetidin-3-ylcarbamoyl}-methyl)-3-trifluoromethyl-benzamide] it is 180 nM.

For `O=C(CNC(=O)c1cccc(C(F)(F)F)c1)NC1CN(C2CCC(c3ccc(=O)[nH]c3)CC2)C1` (single isomer, unassigned) [Example 37a, N-({1-[4-(6-Oxo-1,6-dihydro-pyridin-3-yl)-cyclohexyl]-azetidin-3-ylcarbamoyl}-methyl)-3-trifluoromethyl-benzamide], the IC50 was determined as 170 nM. Next, `O=C(CNC(=O)c1cccc(C(F)(F)F)c1)NC1CN(C2CCC(c3ncccc3NC(=O)C(F)(F)F)CC2)C1` (stereo not drawn) [Example 17, N-[(1-{4-[3-(2,2,2-Trifluoro-acetylamino)-pyridin-2-yl]-cyclohexyl}-azetidin-3-ylcarbamoyl)-methyl]-3-trifluoromethyl-benzamide]: 920 nM.

As for `O=C(CNC(=O)c1cccc(C(F)(F)F)c1)NC1CN(C2CCC(c3ncccc3O)CC2)C1` (stereo not drawn) [Example 3, N-({1-[4-(3-Hydroxy-pyridin-2-yl)-cyclohexyl]-azetidin-3-ylcarbamoyl}-methyl)-3-trifluoromethyl-benzamide], the half-inhibitory concentration (IC50) came to 24 nM.

`O=C(CNC(=O)c1cccc(C(F)(F)F)c1)NC1CN(C2CCC(c3cnccc3O)CC2)C1` (stereo not drawn) [Example 11, N-({1-[4-(4-Hydroxy-pyridin-3-yl)-cyclohexyl]-azetidin-3-ylcarbamoyl}-methyl)-3-trifluoromethyl-benzamide]: the half-inhibitory concentration (IC50) was 460 nM.

In the case of `Nc1cccc(C2CCC(N3CC(NC(=O)CNC(=O)c4cccc(C(F)(F)F)c4)C3)CC2)n1` (single isomer, unassigned) [Example 22a, N-({1-[4-(6-Amino-pyridin-2-yl)-cyclohexyl]-azetidin-3-ylcarbamoyl}-methyl)-3-trifluoromethyl-benzamide], the IC50 is 25 nM. In the case of `N#CNc1cccc(C2CCC(N3CC(NC(=O)CNC(=O)c4cccc(C(F)(F)F)c4)C3)CC2)n1` (stereo not drawn) [Example 25, N-({1-[4-(6-Cyanoamino-pyridin-2-yl)-cyclohexyl]-azetidin-3-ylcarbamoyl}-methyl)-3-trifluoromethyl-benzamide], the IC50 was 210 nM.

Values taken from patent US8269015B2, “4-azetidinyl-1-heteroaryl-cyclohexane antagonists of CCR2” (Janssen Pharmaceutica N.V., priority 2009, dated 2012).
